Measured values as given in patent US20120252773A1, “Method and composition for inhibiting cell proliferation and angiogenesis” (priority 2005, published 2012).

Experiments:
DU-145 cells = test: Cell cycle analysis by flow cytometry in DU-145 cells; format: cell-based, human; details: DU-145, 10 μM
Experimental: DU-145 cells were treated with 10 μM of (2) for 6, 24, 48, 72, or 96 h. At the end of each time period, cells were hypotonically lysed in DNA staining solution (0.5 mg/ml propidium iodide, 0.1% sodium citrate, and 0.05% Triton X-100). The stained cells were analyzed by flow cytometry (FACS) using software provided by Phoenix Flow System.

[1] = tested on: A549 human non small cell lung cancer tumors; test: A549 NSCLC nude mouse xenograft model, tumor growth; format: in vivo; details: 30 days
Experimental: The xenograft model was conducted using 8 weeks old female athymic nude mice supplied by Charles River Laboratories. After 4 days of quarantine, A549 human non small cell lung cancer cells (3×10^6 cells/mouse) were subcutaneously implanted in the right flanks of mice in a 100 μl of Matrigel/phosphate buffered saline mixture (1:1). Animals were observed daily for tumor growth. When tumors became palpable, we began to measure the tumors using the formula V=W×L×H×π/6, where W and L represent the shorter and longer diameters of the tumor, H the height of the tumor. When tumor volumes reached approximately 50 mm^3, animals were randomized into control and treatment groups of 10 mice each based on tumor volumes. Only the mice with tumor volumes closest to the mean value were used. On the day of randomization, animals began to receive drug treatment. Compound (2) and Tarceva (Erlotinib) were orally dosed via gavage once daily. Cisplatin and Paclitaxel were dosed via intraperitoneal injection once weekly.
After initiation of drug treatment, tumor volumes were measured twice weekly and body weights once weekly. The study was carried out for 30 days and unscheduled sacrifices were performed on animals with tumor volumes greater than 1500 mm^3 or tumors developing ulceration or loss of 20% of their original body weights. […]

[2] = tested on: DU-145 Human Androgen-Independent Prostate Cancer Cells; test: Apoptosis by TUNEL assay in DU-145 cells; format: cell-based; details: DU-145, 10 μM, 24 hours
Experimental: DU-145 cells (ATCC) were treated with 10 μM (2) for 24 hours. Apoptosis was measured by the terminal deoxynucleotidyl transferase mediated dUTP nick end labeling (TUNEL) assay. This assay was conducted using the Apoptosis Detection Kit (Promega, Madison, Wis.) following the instructions provided by the manufacturer. Briefly, DU-145 cells were incubated with (2) for 24, 48, or 72 hours. At the end of incubation, cells were fixed with freshly prepared 4% methanol-free paraformaldehyde in PBS, washed, and then permeabilized in 0.2% Triton X-100 in PBS. The cells on the slides were then incubated with Tdt enzyme for 1 h at 37° C., stained with propidium iodide, and examined under a fluorescence microscope. Fragmented DNA was made visible with green fluorescence stain within the apoptotic cells.

[3] = tested on: A549 human non-small cell lung cancer cells; test: Cell growth inhibition, MTT, 7 days, A549; format: cell-based; details: A549, 7 days, Example 15
Experimental: To measure the inhibitory activity of (2) on growth of HDMVEC cells (Clonetics, San Diego, Calif.), 2,000 cells were seeded in each well of a 96-well plate in […] of EGM medium (Clonetics) supplemented with 5% fetal bovine serum (Sigma). The plate was incubated at 37° C. in a tissue culture incubator for 24 h, and then various concentrations of (2) dissolved in EGM were added to each well in 5-10 μl aliquots. Four wells were used for each concentration. Medium in each well was renewed with fresh test solution added every other day. After 7 days of culture, the viable cells were measured using reagents from an MTT kit (Promega Corporation, Madison, Wis.), using instructions provided by the supplier. The number of viable cells in treated wells relative to those in control wells gave the percentage of inhibition.
Compound (2) was evaluated in several different human cancer cell lines for its effects on cell growth. […]
To measure the inhibitory activity of test articles on growth of NSCLC cells, 2,000 cells were seeded in each well of a 96-well plate in […] of RPMI-1640 medium supplemented with 2 mM glutamine and 10% fetal bovine serum (growth medium). […] After 7 days of culture, the viable cells were measured using reagents from MTT kit (Promega Corporation, Madison, Wis.), using instructions provided by the supplier. […]

[4] = tested on: PC-3 human prostate tumors; test: PC-3 xenograft nude mouse model, tumor growth; format: in vivo
Experimental: Compound (2) was evaluated using the xenograft nude Balb-C athymic mouse model for its in vivo anti-tumor activity against PC-3 human prostate tumors. The mice were obtained from Taconic Laboratories. The experiment was conducted by subcutaneously implanting PC-3 cells to the right flanks of BALB-C athymic nude mice (Taconic Laboratories) followed by observing tumor growth daily. There were 8 mice in the control and each treatment groups. When tumor volumes reached 70-100 mm^3, drug delivery was initiated at 3 dose levels of (2). The compound was delivered orally as follows: 0 mg/kg to the control group, 10 mg/kg to one treatment group, and 30 mg/kg to a second treatment group, each once daily for 28 days; and 100 mg/kg to a third treatment group, once weekly. Tumor volumes were measured twice weekly and body weights once weekly.
Mice were treated as in Example 7, except that one group received no oral (2), but instead received 7.5 mg/kg i.p. paclitaxel (Sigma) when the tumors reached 70-100 mm^3, while another group received both (2) orally at 10 mg/kg and paclitaxel i.p. at 7.5 mg/kg.

Structure (SMILES): C[C@@H]1Cc2cc(O)ccc2C2CCC3(C)/C(=C/COCCN(C)C)CCC3C21 (stereo partly drawn) [Compound (2), (E)-3-Hydroxy-7α-methyl-21-[(2-dimethylamino)ethoxy]-19-norpregna-1,3,5(10),17(20)-tetraene]
- more cells arrested in phase G1 compared with untreated control (DU-145 cells): about 30%
- growth rate of A549 tumors ([1]; 10 mg/kg oral once daily): drastically reduced the growth rate
- growth rate of A549 tumors ([1]; 20 mg/kg oral once daily): drastically reduced the growth rate
- apoptosis, fragmented DNA (TUNEL) [2]: quite a few pieces of fragmented DNA were evident
- growth of NSCLC cells [3]: inhibited the growth of NSCLC cells in a dose-response manner
- inhibitory activity compared with Cisplatin tested in parallel [3]: much more potent than that of Cisplatin
- tumor growth rate ([4]; 10 mg/kg oral once daily for 28 days): markedly decreased growth rates
- reduction of microvascularization compared to control group ([4]; 30 mg/kg oral): about 50%
- tumor growth rate ([4]; 30 mg/kg oral once daily for 28 days): markedly decreased growth rates
- tumor growth rate ([4]; 100 mg/kg oral once weekly): markedly decreased growth rates
